Laboratory results: patent US20240368163A1, “COMPOUNDS AND METHODS FOR MODULATING SPLICING” (REMIX THERAPEUTICS INC., priority 2021, published 2024)
Where two headings read alike, the source gives them in different places.

What was measured:
Type in all cases: cell-based, human
Target C [1] = experiment: HiBiT protein abundance assay, Target C; details: Table 13A, modified K562 cells
Outline: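 HiBiT knock-in K562-derived cells, 10000 cells/well, were treated 24 h at 37 °C with a 10-point 3-fold dilution series (top 10 μM final, DMSO ≤0.25%). Lytic HiBiT luminescence was normalized to unmodified K562 and DMSO controls; IC50 was interpolated at 50% from a four-parameter logistic fit.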

HTT [2] = experiment: Splicing RT-qPCR assay, HTT mRNA canonical junction (CJ) and alternative junction (AJ); details: for AC50: increase in AJ mRNA
Outline: (§1)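 Splice switching is measured in A673 or K562 cells after 24 h compound exposure (maximum 10 uM, 3-fold steps). Canonical and alternative junction mRNA levels are quantified by RT-qPCR relative to housekeeper and DMSO.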

MYB [3] = experiment: Splicing RT-qPCR assay, MYB mRNA canonical junction (CJ) and alternative junction (AJ); details: for AC50: increase in AJ mRNA
Outline: as §1

Target C [4] = experiment: Splicing RT-qPCR panel, Target C canonical junction (CJ) mRNA; details: RT-qPCR panel, canonical junction mRNA, compound concentration having 50% response in CJ decrease, read-out: Target C IC50 (decrease in CJ mRNA levels)
Outline: as §1

MYB [5] = experiment: HiBiT protein abundance assay, MYB; details: Table 13A, modified K562 cells
Outline: (§2)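 K562 cells with endogenous HiBiT-tagged target were treated 24 h at 37 °C with compound (10-point 3-fold dilution, top 10 μM final, DMSO ≤0.25%). Lytic LgBiT luminescence was normalized to unmodified K562 (baseline) and DMSO-treated tagged cells; IC50 interpolated at 50% from four-parameter logistic fit.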

SMN2 = experiment: Splicing RT-qPCR panel, SMN2 canonical junction (CJ) mRNA; details: RT-qPCR panel, canonical junction mRNA, compound concentration having 50% response in CJ decrease, read-out: SMN2 IC50 (decrease in CJ mRNA levels)
Outline: as §1

HTT [6] = experiment: HiBiT protein abundance assay, HTT; details: Table 13A, modified K562 cells
Outline: as §2

[7] = RT-qPCR panel, canonical junction mRNA, compound concentration having 50% response in CJ decrease, read-out: HTT IC50 (decrease in CJ mRNA levels)
[8] = decrease in CJ mRNA, A673 or K562 cells, 24 hours treatment, RT-qPCR, read-out: HTT CJ IC50
[9] = RT-qPCR panel, canonical junction mRNA, compound concentration having 50% response in CJ decrease, read-out: MYB IC50 (decrease in CJ mRNA levels)
[10] = decrease in CJ mRNA, A673 or K562 cells, 24 hours treatment, RT-qPCR, read-out: MYB CJ IC50
[11] = Homo sapiens, 24 h, decrease in CJ mRNA, A673 or K562 cells, 24 hours treatment, RT-qPCR, read-out: HTT CJ IC50
[12] = Homo sapiens, 24 h, A673 or K562 cells, 24 hours treatment, RT-qPCR
[13] = Homo sapiens, RT-qPCR panel, canonical junction mRNA, compound concentration having 50% response in CJ decrease, read-out: HTT IC50 (decrease in CJ mRNA levels)
[14] = Homo sapiens, 24 h, decrease in CJ mRNA, A673 or K562 cells, 24 hours treatment, RT-qPCR, read-out: MYB CJ IC50
[15] = Homo sapiens, RT-qPCR panel, canonical junction mRNA, compound concentration having 50% response in CJ decrease, read-out: MYB IC50 (decrease in CJ mRNA levels)

SMILES | IC50 (Target C [1]; 24 hours) [nM] | IC50 (HTT [2]; [7]) [nM] | IC50 (HTT [2]; [8]) [nM] | IC50 (MYB [3]; [9]) [nM] | IC50 (MYB [3]; [10]) [nM] | IC50 (Target C [4]) [µM] | IC50 (MYB [5]; 24 hours) [nM] | IC50 (SMN2) [nM] | IC50 (HTT [6]; 24 hours) [nM] | IC50 (Target C [1]; Homo sapiens, K562, 24 h) [nM] | IC50 (HTT [2]; [11]) [nM] | AC50 (HTT [2]; [12]) [nM] | IC50 (HTT [2]; [13]) [nM] | IC50 (MYB [3]; [14]) [nM] | AC50 (MYB [3]; [12]) [µM] | IC50 (MYB [3]; [15]) [nM] | IC50 (Target C [4]; Homo sapiens) [µM] | IC50 (MYB [5]; Homo sapiens, K562, 24 h) [nM] | IC50 (SMN2; Homo sapiens) [nM] | IC50 (HTT [6]; Homo sapiens, K562, 24 h) [nM]
CN(c1ccc(-c2cc(F)c(-c3cnn(C)c3)c3cn[nH]c23)nn1)C1CC(C)(C)NC(C)(C)C1 [Compound 326, 6-[5-fluoro-4-(1-methylpyrazol-4-yl)-1H-indazol-7-yl]-N-methyl-N-(2,2,6,6-tetramethylpiperidin-4-yl)pyridazin-3-amine] | 1000 to 10000 | 100 to 1000 | 100 to 1000 | 100 to 1000 | 100 to 1000 | 1 to 10 | 100 to 1000 | < 100 | 100 to 1000 | – | – | – | – | – | – | – | – | – | – | –
c1n[nH]cc1-c1ccc(-c2ccc(O[C@@H]3C[C@H]4CC[C@@H](C3)N4)nn2)c2cn[nH]c12 [Compound 328] | – | – | – | – | – | – | – | – | – | > 10000 | > 10000 | > 10000 | > 10000 | > 10000 | > 10 | > 10000 | > 10 | 1000 to 10000 | 1000 to 10000 | > 10000
CN(c1ccc(-c2ccc(-c3cn[nH]c3)c3[nH]ncc23)nn1)[C@@H]1C[C@H]2CC[C@@H](C1)N2 [Compound 329] | – | – | – | – | – | – | – | – | – | > 10000 | > 10000 | > 10000 | > 10000 | > 10000 | > 10 | > 10000 | > 10 | > 10000 | 1000 to 10000 | > 10000
CN(c1ccc(-c2ccc(-c3cnn(C)c(=O)c3)c3ncsc23)nn1)C1CC(C)(C)NC(C)(C)C1 [Compound 331, 2-methyl-5-(7-{6-[methyl(2,2,6,6-tetramethylpiperidin-4-yl)amino]pyridazin-3-yl}-1,3-benzothiazol-4-yl) pyridazin-3-one] | – | – | – | – | – | – | – | – | – | > 10000 | 1000 to 10000 | 1000 to 10000 | 1000 to 10000 | 1000 to 10000 | 1 to 10 | 1000 to 10000 | > 10 | 1000 to 10000 | 100 to 1000 | 100 to 1000
c1cnn(-c2ccc(-c3ccc(O[C@@H]4C[C@H]5CC[C@@H](C4)N5)nn3)c3scnc23)c1 [Compound 334] | – | – | – | – | – | – | – | – | – | 1000 to 10000 | 100 to 1000 | 1000 to 10000 | 100 to 1000 | > 10000 | 1 to 10 | > 10000 | > 10 | 100 to 1000 | 100 to 1000 | 100 to 1000
CC1(C)CC(Oc2ccc(-c3ccc(-n4cccn4)c4ncsc34)nn2)CC(C)(C)N1 [Compound 335, 4-(pyrazol-1-yl)-7-{6-[(2,2,6,6-tetramethylpiperidin-4-yl)oxy]pyridazin-3-yl}-1,3-benzothiazole] | – | – | – | – | – | – | – | – | – | 1000 to 10000 | 1000 to 10000 | 1000 to 10000 | 1000 to 10000 | 1000 to 10000 | 1 to 10 | 1000 to 10000 | 1 to 10 | 1000 to 10000 | 100 to 1000 | 100 to 1000
Cn1cc(-c2c(F)cc(-c3ccc(NC4CCNCC4)nn3)c3[nH]ncc23)cn1 [Compound 338] | – | – | – | – | – | – | – | – | – | 1000 to 10000 | 1000 to 10000 | 1000 to 10000 | 1000 to 10000 | 1000 to 10000 | 1 to 10 | 1000 to 10000 | > 10 | 1000 to 10000 | 100 to 1000 | 1000 to 10000
Cc1ncc(-c2ccc(-c3ccc(N(C)C4CC(C)(C)NC(C)(C)C4)nn3)c3scnc23)o1 [Compound 342] | – | – | – | – | – | – | – | – | – | 100 to 1000 | 100 to 1000 | 100 to 1000 | 100 to 1000 | 1000 to 10000 | 1 to 10 | 1000 to 10000 | 1 to 10 | 100 to 1000 | < 100 | 100 to 1000
c1cnn(-c2ccc(-c3ccc(N[C@@H]4C[C@H]5CC[C@@H](C4)N5)nn3)c3scnc23)c1 [Compound 343] | – | – | – | – | – | – | – | – | – | 100 to 1000 | – | 100 to 1000 | < 100 | 100 to 1000 | 0.1 to 1 | 100 to 1000 | 0.1 to 1 | 100 to 1000 | < 100 | < 100
CN(c1ccc(-c2ccc(-n3cccn3)c3ncsc23)nn1)[C@@H]1C[C@H]2CC[C@@H](C1)N2 [Compound 344] | – | – | – | – | – | – | – | – | – | 100 to 1000 | – | 100 to 1000 | < 100 | 100 to 1000 | 0.1 to 1 | 100 to 1000 | 0.1 to 1 | 100 to 1000 | < 100 | < 100
CC(C)(C)NC1CCN(c2ccc(-c3ccc(-c4cn[nH]c4)c4ncsc34)nn2)C1 (stereo not drawn) [Compound 345, N-tert-butyl-1-{6-[4-(1H-pyrazol-4-yl)-1,3-benzothiazol-7-yl]pyridazin-3-yl} pyrrolidin-3-amine] | 1000 to 10000 | 1000 to 10000 | 1000 to 10000 | 1000 to 10000 | 1000 to 10000 | 1 to 10 | 1000 to 10000 | 100 to 1000 | 100 to 1000 | – | – | – | – | – | – | – | – | – | – | –
c1cnn(-c2ccc(-c3ccc(N4CCC(NC5CC5)C4)nn3)c3scnc23)c1 (stereo not drawn) [Compound 346, N-cyclopropyl-1-{6-[4-(pyrazol-1-yl)-1,3-benzothiazol-7-yl]pyridazin-3-yl}pyrrolidin-3-amine] | – | – | – | – | – | – | – | – | – | > 10000 | > 10000 | > 10000 | > 10000 | > 10000 | > 10 | > 10000 | > 10 | 1000 to 10000 | > 10000 | 1000 to 10000
c1cnn(-c2ccc(-c3ccc(N4CCC(NC5CC5)C4)nn3)c3[nH]ncc23)c1 (stereo not drawn) [Compound 347, N-cyclopropyl-1-{6-[4-(pyrazol-1-yl)-1H-indazol-7-yl]pyridazin-3-yl}pyrrolidin-3-amine] | – | – | – | – | – | – | – | – | – | > 10000 | > 10000 | > 10000 | > 10000 | > 10000 | > 10 | > 10000 | > 10 | 1000 to 10000 | 1000 to 10000 | 1000 to 10000
Cc1cc(-c2ccc(-c3ccc(O[C@@H]4C[C@H]5CC[C@@H](C4)N5)nn3)c3scnc23)ccn1 [Compound 349] | – | – | – | – | – | – | – | – | – | 1000 to 10000 | 1000 to 10000 | 1000 to 10000 | 1000 to 10000 | 1000 to 10000 | > 10 | 1000 to 10000 | 1 to 10 | 100 to 1000 | < 100 | 100 to 1000
Cl.Fc1cc(-c2ccc(NC3CCNCC3)nn2)c2[nH]ncc2c1-c1cn[nH]c1 [Compound 350, 6-[5-fluoro-4-(1H-pyrazol-4-yl)-1H-indazol-7-yl]-N-(piperidin-4-yl)pyridazin-3-amine hydrochloride] | – | – | – | – | – | – | – | – | – | > 10000 | > 10000 | > 10000 | > 10000 | > 10000 | > 10 | > 10000 | > 10 | 1000 to 10000 | > 10000 | > 10000
CN(c1ccc(-c2cc(F)c(-c3cn[nH]c3)c3cn[nH]c23)nn1)[C@@H]1C[C@H]2CC[C@@H](C1)N2 [Compound 351] | – | – | – | – | – | – | – | – | – | 100 to 1000 | – | < 100 | < 100 | 100 to 1000 | 0.1 to 1 | 100 to 1000 | 0.1 to 1 | 100 to 1000 | < 100 | < 100
c1nc2c(-c3cn[nH]c3)ccc(-c3ccc(N[C@H]4C[C@H]5COC[C@@H](C4)N5)nn3)c2s1 [Compound 353] | – | – | – | – | – | – | – | – | – | > 10000 | > 10000 | 1000 to 10000 | > 10000 | 1000 to 10000 | > 10 | 1000 to 10000 | 1 to 10 | 1000 to 10000 | 1000 to 10000 | 1000 to 10000
